Source: patent US20250066380A1, “NOVEL FURANO-NAPHTHOQUINONE AND NOVEL PYRAZINONE COMPOUNDS FROM AMYCOLATOPSIS AND ACTIVITIES THEREOF” (COUNCIL OF SCIENTIFIC AND INDUSTRIAL RESEARCH (AN INDIAN …, priority 2022, published 2025)
Values after ≈ are worked out from the molar mass of the structure shown. Read-outs that look alike come from different tables or passages of the source.

Key:
[1] = tested on: Bacillus cereus ATCC 11778; test: MIC, CLSI broth microdilution; format: cell-based; conditions: Mueller Hinton broth, 18 hours at 37° C., highest concentration 128 μg/ml
Experimental: (§1) The MICs of the purified compounds were done according to CLSI guidelines using Mueller Hinton broth (Hi media) against panel of six Gram positive bacteria S.aureus, S.epidermidis, B.cereus, B.subtilis, M.luteus and L.monocytogenes, two Gram negative bacteria E.coli and P.aeruginosa, and four MRSA (Methicillin resistant S.aureus) clinical strain. The stock solution of compounds were made at 10 mg/ml in DMSO. The test compounds (highest concentration 128 μg/ml) were serially diluted in 50 μl of Mueller Hinton broth and 50 μl of bacterial suspension were added to reach the final desired cell density of 5×10^5 CFU ml^−1 in each well of 96 well microtiter plate except the media control. The medium, untreated culture, DMSO, ampicillin and kanamycin were used as controls. […] The MICs were defined as the lowest concentration that inhibited visible growth of bacteria.

[2] = tested on: Bacillus subtilis ATCC 6633; test: MIC, CLSI broth microdilution; format: cell-based; conditions: Mueller Hinton broth, 18 hours at 37° C., highest concentration 128 μg/ml
Experimental: as §1

[3] = tested on: Listeria monocytogenes ATCC 19111; test: MIC, CLSI broth microdilution; format: cell-based; conditions: Mueller Hinton broth, 18 hours at 37° C., highest concentration 128 μg/ml
Experimental: as §1

[4] = tested on: Micrococcus luteus ATCC 9341; test: MIC, CLSI broth microdilution; format: cell-based; conditions: Mueller Hinton broth, 18 hours at 37° C., highest concentration 128 μg/ml
Experimental: as §1

[5] = tested on: Pseudomonas aeruginosa ATCC 9027; test: MIC, CLSI broth microdilution; format: cell-based; conditions: Mueller Hinton broth, 18 hours at 37° C., highest concentration 128 μg/ml
Experimental: as §1

[6] = tested on: Staphylococcus aureus ATCC 9144; test: MIC, CLSI broth microdilution; format: cell-based; conditions: Mueller Hinton broth, 18 hours at 37° C., highest concentration 128 μg/ml
Experimental: as §1

[7] = tested on: Staphylococcus epidermidis ATCC; test: MIC, CLSI broth microdilution; format: cell-based; conditions: Mueller Hinton broth, 18 hours at 37° C., highest concentration 128 μg/ml
Experimental: as §1

[8] = tested on: Mycobacterium smegmatis ATCC 607; test: MIC, Middlebrook 7H9 medium; format: cell-based; conditions: for MIC: Middlebrook 7H9 medium, 48 hours at 37° C., highest concentration 128 μg/ml
MRSA_10B = test: MIC, CLSI broth microdilution, MRSA clinical strain; format: cell-based, Methicillin resistant S.aureus; conditions: Mueller Hinton broth, 18 hours at 37° C., highest concentration 128 μg/ml
Experimental: as §1

MRSA_3B = test: as above; format: cell-based, Methicillin resistant S.aureus; conditions: Mueller Hinton broth, 18 hours at 37° C., highest concentration 128 μg/ml
Experimental: as §1

MRSA_6B = test: as above; format: cell-based, Methicillin resistant S.aureus; conditions: Mueller Hinton broth, 18 hours at 37° C., highest concentration 128 μg/ml
Experimental: as §1

MRSA_9B = test: as above; format: cell-based, Methicillin resistant S.aureus; conditions: Mueller Hinton broth, 18 hours at 37° C., highest concentration 128 μg/ml
Experimental: as §1

Gram-positive bacteria = test: MIC, panel of Gram positive bacteria; format: cell-based
Experimental: as §1

[9] = tested on: blood-stage Plasmodium falciparum (3D7 strain); test: Antimalarial activity, SYBR green staining-based parasitemia determination; format: cell-based; conditions: P. falciparum 3D7
Experimental: The antimalarial activity was carried out on blood-stage Plasmodium falciparum (3D7 strain) with various concentrations ranging from 10 μM to 0.01 μM by 5 SYBR green staining-based parasitemia determination. Parasite cultures were incubated with the test compounds for 60 h under optimal growth conditions, following which the cells were lysed with 0.01% Triton X and stained with SYBR Green I nucleic acid stain (Thermo Fisher Scientific) to estimate parasite growth and inhibition. Fluorescence readings were obtained with a GloMax plate reader (Promega) after 15 min incubation in the dark and raw fluorescence readings were processed. The % growth inhibition values were estimated from comparisons between test and control samples.

A549 (lung cancer) = test: MTT cell viability assay; format: cell-based; conditions: Homo sapiens, A549, 24 hours treatment
Experimental: (§2) MTT assay was used for the study of cell viability, which measured cellular metabolic activity based on the ability of nicotinamide adenine dinucleotide phosphate (NADPH) dependent oxidoreductase enzymes to reduce the yellow tetrazolium salt 3-[4,5-dimethylthiazole-2-yl]-2,5-diphenyltetrazolium bromide (MTT) to purple formazan crystals. The cell lines used for the study were A549 (lung cancer), HeLa (Cervical cancer) and MDA MB-231 (Breast cancer), which were seeded with a density of 10,000 cells/well into 96-well plates and incubated at 37° C. with 5% CO2 for 20 hours. The compounds with different concentrations were used to treat the cells for 24 hours. The medium was replaced with 100 μL of MTT solution (0.5 mg/mL in DMEM) and then incubated for 4 h at 37° C. in dark. Subsequently, MTT solution was removed and the formazan crystals were solubilized by addition of 100 μl DMSO. The optical density was measured at 570 nm by a Biotek synergy H1 microplate reader.

HeLa (Cervical cancer) = test: MTT cell viability assay; format: cell-based; conditions: Homo sapiens, 24 hours treatment
Experimental: as §2

[10] = tested on: MDA MB-231 (Breast cancer); test: MTT cell viability assay; format: cell-based; conditions: Homo sapiens, MDA-MB-231, 24 hours treatment
Experimental: as §2

[11] = tested on: MDA-MB-231, A549 and HeLa; test: MTT cell viability assay, tested cancer cell lines; format: cell-based
Experimental: as §2

[12] = tested on: Escherichia coli ATCC 8739; test: MIC, CLSI broth microdilution; format: cell-based; conditions: ATCC8739, Mueller Hinton broth, 18 hours at 37° C., highest concentration 128 μg/ml
Experimental: as §1

[13] = tested on: resistant clinical bacterial strains; test: MIC, resistant clinical bacterial strains; format: cell-based, MRSA (Methicillin resistant S.aureus)
Experimental: as §1

[14] = Bacillus cereus, ATCC11778, read-out: MIC
[15] = Bacillus subtilis, ATCC6633, read-out: MIC
[16] = Listeria monocytogenes, ATCC19111, read-out: MIC
[17] = Micrococcus luteus, ATCC9341, read-out: MIC
[18] = Staphylococcus aureus, ATCC9144, read-out: MIC
[19] = Staphylococcus epidermidis, read-out: MIC
[20] = Mycolicibacterium smegmatis, ATCC607, read-out: MIC
[21] = Staphylococcus aureus, read-out: MIC

SMILES	antibacterial activity against Gram-positive bacteria (Gram-positive bacteria)	antimalarial activity [9]	IC50 (A549 (lung cancer)) [µg/mL]	IC50 (HeLa (Cervical cancer)) [µg/mL]	IC50 [10] [µg/mL]	anticancer activity [11]	MIC [1, 14] [µg/mL]	MIC [2, 15] [µg/mL]	MIC [3, 16] [µg/mL]	MIC [4, 17] [µg/mL]	MIC [6, 18] [µg/mL]	MIC [7, 19] [µg/mL]	MIC [8, 20] [µg/mL]	MIC (MRSA_9B; [21]) [µg/mL]	MIC (MRSA_10B; [21]) [µg/mL]	MIC (MRSA_3B; [21]) [µg/mL]	MIC (MRSA_6B; [21]) [µg/mL]	other results
CC1(C)S[C@@H]2[C@H](NC(=O)[C@H](N)c3ccccc3)C(=O)N2[C@H]1C(=O)O [Ampicilli, ampicillin, reference compound]	–	–	–	–	–	–	–	–	–	–	–	–	–	–	–	–	–	MIC [1]: 16 µg/mL (≈ 45.8 µM); MIC [2]: 0.03 µg/mL (≈ 0.0859 µM); MIC [3]: 0.03 µg/mL (≈ 0.0859 µM); MIC [4]: 0.03 µg/mL (≈ 0.0859 µM); MIC [5]: 2 µg/mL (≈ 5.72 µM); MIC [6]: 0.03 µg/mL (≈ 0.0859 µM); MIC [7]: 1 µg/mL (≈ 2.86 µM); MIC [8]: 64 µg/mL (≈ 183 µM); MIC (MRSA_10B): 4 µg/mL (≈ 11.4 µM); MIC (MRSA_3B): 8 µg/mL (≈ 22.9 µM); MIC (MRSA_6B): 8 µg/mL (≈ 22.9 µM); MIC (MRSA_9B): 16 µg/mL (≈ 45.8 µM)
CC1OC2OC3C(C)(OC4(O)C(=O)c5c(O)cccc5C(=O)C34O)C12O (stereo not drawn) [Compound C-2]	weakly active	moderately active	44.9	36	19.1	moderate activity	–	–	–	–	–	–	–	–	–	–	–	–
NC[C@H]1O[C@H](O[C@H]2[C@H](O)[C@@H](O[C@H]3O[C@H](CO)[C@@H](O)[C@H](N)[C@H]3O)[C@H](N)C[C@@H]2N)[C@H](O)[C@@H](O)[C@@H]1O [Kanamycin, kanamycin, reference compound]	–	–	–	–	–	–	2 (≈ 4.13 µM)	0.5 (≈ 1.03 µM)	1 (≈ 2.06 µM)	8 (≈ 16.5 µM)	8 (≈ 16.5 µM)	1 (≈ 2.06 µM)	0.25 (≈ 0.516 µM)	128 (≈ 264 µM)	–	–	–	MIC [12]: 8 µg/mL (≈ 16.5 µM); MIC ([5]; Pseudomonas aeruginosa, ATCC9027, read-out: MIC): 8 µg/mL (≈ 16.5 µM)
CC(C)Cc1nc(C(C)C(=O)O)c(C(C)C)n(O)c1=O (stereo not drawn) [Compound C-4]	weakly active	moderately active	40.2	15.4	14.1	moderate activity	128 (≈ 453 µM)	128 (≈ 453 µM)	128 (≈ 453 µM)	64 (≈ 227 µM)	128 (≈ 453 µM)	64 (≈ 227 µM)	–	128 (≈ 453 µM)	128 (≈ 453 µM)	128 (≈ 453 µM)	128 (≈ 453 µM)	–
CC1OC2OC3C4=C(OC3(C)C12O)C(=O)c1c(O)cccc1C4=O (stereo not drawn) [Compound C-1]	good antibacterial activity	–	2.14	3.53	1.79	–	8 (≈ 24.2 µM)	4 (≈ 12.1 µM)	2 (≈ 6.06 µM)	8 (≈ 24.2 µM)	2 (≈ 6.06 µM)	2 (≈ 6.06 µM)	64 (≈ 194 µM)	4 (≈ 12.1 µM)	4 (≈ 12.1 µM)	4 (≈ 12.1 µM)	4 (≈ 12.1 µM)	activity against Mycobacterium smegmatis [8]: weakly active; activity against the resistant clinical bacterial strains [13]: active; EC50 ([9]; Plasmodium falciparum, read-out: antimalarial activity (bound)): < 1 µM; IC50 ([11]; read-out: IC50 value range over the tested cancer cell lines): 1.79 to 8.82 µg/mL
